Values joined by “and” are separate entries in the source; they are usually repeats but may differ in a detail not shown here. Identical values can stand only once.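 48-hour exposure; five concentrations; linearly interpolated endpoints. GI50 marks 50% less growth. TGI is the concentration that stops growth completely.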
system: SF-295 CNS; test: DTP human tumour cell line panel, 48 h

Compound	GI50 [µM]	TGI [µM]
N#Cc1ccc(O)c(C2=NCC(c3cccc(Oc4ccccc4)c3)O2)c1 (centres undefined)	0.413	23.5
O=C1Nc2c(C(F)(F)F)cccc2[C@]1(c1ccc(O)cc1)c1ccc(OC(F)(F)F)cc1	10	22.1
CC(=O)OC[C@]1(C)C=C2C(=O)[C@](C)(O)C3(CC3)C(C)=C2[C@H]1O	0.131	1.56
Oc1ccc(NCc2nc3ccccc3[nH]2)cc1	24.4	97.2
C[C@]12CC[C@H]3[C@@H](CC=C4C[C@@H](O)CC[C@@]43C)[C@@H]1CC[C@@H]2N(CCO)CCO		> 100
O=C1c2cc(Cl)ccc2S(=O)(=O)c2c(NCCCNCCO)nc3ccccc3c21	3.26	12.4
CC(C)(C)OC(=O)N1CCc2c(sc3ncnc(N/N=C/c4cccc5ccccc45)c23)C1	3.72	66.8
CC[C@@H]1CN(C)[C@H]2Cc3c([nH]c4ccccc34)C(=O)C[C@H]1C2C(=O)OC (some centres undefined)		> 100
CCN(CC)c1ccc(/C=C/c2ccc3cc(C)ccc3[n+]2CC)cc1	0.0658	0.864
COc1ccc(/C=C/c2nccc3ccccc23)cc1OC		> 10
COC1/C=C\C=C(/C)C(=O)NC2=CC(=O)C(=O)C(=C2O)CC(C)CC(OC)C(O)C(C)/C=C(\C)C1OC(N)=O (centres undefined)		> 100
O=c1[nH]ncc(Br)c1Br	8.8	22.5

system: KM12 colon; test: DTP human tumour cell line panel, 48 h

Compound	GI50	TGI
CC[C@]1(O)C[C@@H]2CN(CCc3c([nH]c4ccccc34)[C@@](C(=O)OC)(c3cc4c(cc3OC)N(C)[C@H]3[C@@](O)(C(=O)OC)[C@H](OC(C)=O)[C@]5(CC)C=CCN6CC[C@]43[C@@H]65)C2)C1	< 0.01 µM	14.4 µM
N#CSc1c[nH]c2cccc(/C=C/C(=O)/C=C(/C=C/c3cccc4[nH]cc(SC#N)c34)OB(F)F)c12	1.04 µM	3.98 µM
COc1cc([N+](=O)[O-])cc2c3c(n(C)c12)[C@@]1(C)CCC2c4ccc(OCc5ccccc5)cc4CCC2C1C3 (some centres undefined)	> 100 µM	> 100 µM
C=CC(=O)N1CC2(CCN(c3nc(OC4CCN(CCCOC)CC4)nc4c(OCC(F)(F)F)c(-c5c(C)ccc6[nH]ncc56)c(C5CC5)cc34)CC2)C1	1.96 µM	4.04 µM
CC[C@@H]1C(=O)N(C)c2cnc(Nc3ccc(C(=O)NC4CCN(C)CC4)cc3OC)nc2N1C1CCCC1	0.00346 µM and < 0.01 µM	> 10 µM and 5.65 µM
C=C1C(=O)O[C@H]2[C@H]1CC/C(COC(=O)c1ccc3ccccc3c1)=C\CC[C@@]1(C)O[C@@H]21	1.48 µM	3.16 µM
Nc1nc(Cl)c2ncn(Cc3ccc(C45CC6CC(CC(C6)C4)C5)c(O)c3)c2n1	2.49 µM	15.3 µM
CC[CH2][Sn]([CH2]CC)([O]C(=O)c1cccnc1SC)[O][Sn]([CH2]CC)([CH2]CC)[O]C(=O)c1cccnc1SC	1.5 µM	4.43 µM
CC(C)c1nc(CN(C)C(=O)N[C@H](C(=O)N[C@@H](Cc2ccccc2)C[C@H](O)[C@H](Cc2ccccc2)NC(=O)OCc2cncs2)C(C)C)cs1	23.1 µM	56.7 µM
CC[C@@]1(O)C(=O)OCc2c1cc1n(c2=O)Cc2c-1nc1cc3c(cc1c2CCl)OCO3	0.181 µM	1.88 µM
N#Cc1ccc(O)c(C2=NCC(c3cccc(Oc4ccccc4)c3)O2)c1 (centres undefined)	0.687 µM	23.1 µM
O=C1Nc2c(C(F)(F)F)cccc2[C@]1(c1ccc(O)cc1)c1ccc(OC(F)(F)F)cc1	11.3 µM	24.2 µM
CC(=O)OC[C@]1(C)C=C2C(=O)[C@](C)(O)C3(CC3)C(C)=C2[C@H]1O	0.191 µM	> 34.7 µM
Oc1ccc(NCc2nc3ccccc3[nH]2)cc1	> 100 µM	> 100 µM
C[C@]12CC[C@H]3[C@@H](CC=C4C[C@@H](O)CC[C@@]43C)[C@@H]1CC[C@@H]2N(CCO)CCO		> 100 µM

Reference: PubChem BioAssay (NCI)
